Laboratory results reported in US8821839B2, “Compositions and methods for imparting a sunless tan with a vicinal diamine” (Conopco, Inc., priority 2010, dated 2014).

Test: Individual Typologic Angle change on synthetic skin for 2.5% DHA plus adjuvant in citric acid/citrate buffer solution
Details: adjuvant at molar equivalent of 1% glycine; for ΔITA ° after 2 hours: pH about 5.5, 2 hours; for ΔITA ° after 4 hours: pH about 5.5, 4 hours
Experimental: The synthetic skin was pre-hydrated at 95% RH for 24 hours and then treated with portions of the samples at a dosage of 5 μL/cm^2. The treated synthetic skin was then stored at 35° C. and 40% RH for periods up to 24 hours. […]
Formulations in Table IV containing 2.5% DHA and the molar equivalent of 1% glycine as adjuvant in a citric acid/citrate buffer solution were prepared. The formulations were adjusted to a pH of about 5.5 to mimic the formulation pH after application to human skin.
Individual Typologic Angle results were obtained in a manner similar to the one described in Example 1.

| SMILES | ΔITA ° after 2 hours | ΔITA ° after 4 hours |
| --- | --- | --- |
| NC1CCCCC1N (stereo not shown) [1,2-diamino cyclohexane] | 20 ± 3 ° | 35 ± 3 ° |
| CC(N)CN (stereo not shown) [1,2-diamino propane] | 17 ± 2 ° | 32 ± 3 ° |
| NCCCN [1,3-diamino propane] | 6 ± 3 ° | 16 ± 4 ° |
| NCCCCN [1,4-diamino butane] | 4 ± 2 ° | 12 ± 4 ° |
| NC1C(O)OC(CO)C(O)C1N (stereo not shown) [3,4-diamino-6-hydroxymethyl-tetrahydro-pyrane 2,5-diol] | 15 ± 3 ° | 23 ± 2 ° |
| NCCN [Ethylene diamine] | 16 ± 2 ° | 32 ± 3 ° |
| NCC(=O)O [Glycine] | 2 ± 1 ° | 7 ± 2 ° |
| CN(C)CCN [N,N-dimethyl ethylene diamine] | 4 ± 2 ° | 8 ± 2 ° |
